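A five-concentration, 48-hour dose response in 96-well plates underlies each endpoint, interpolated linearly between surrounding concentrations. GI50 = concentration required for 50% inhibition of growth. TGI: total growth inhibition.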
Legend:
Experiment in all cases: NCI-60 cell line screen, 48 h
786-0 renal = tested on: 786-0 renal
A498 renal = tested on: A498 renal
A549 NSCLC = tested on: A549 NSCLC
ACHN renal = tested on: ACHN renal
BT-549 breast = tested on: BT-549 breast
CAKI-1 renal = tested on: CAKI-1 renal
CCRF-CEM leukemia = tested on: CCRF-CEM leukemia
COLO 205 colon = tested on: COLO 205 colon
DU-145 prostate = tested on: DU-145 prostate
EKVX NSCLC = tested on: EKVX NSCLC
HCC-2998 colon = tested on: HCC-2998 colon
HCT-116 colon = tested on: HCT-116 colon
HCT-15 colon = tested on: HCT-15 colon
HL-60(TB) leukemia = tested on: HL-60(TB) leukemia
HOP-62 NSCLC = tested on: HOP-62 NSCLC
HOP-92 NSCLC = tested on: HOP-92 NSCLC
HS 578T breast = tested on: HS 578T breast
HT29 colon = tested on: HT29 colon
IGROV1 ovarian = tested on: IGROV1 ovarian
K-562 leukemia = tested on: K-562 leukemia
KM12 colon = tested on: KM12 colon
LOX IMVI melanoma = tested on: LOX IMVI melanoma
M14 melanoma = tested on: M14 melanoma
MALME-3M melanoma = tested on: MALME-3M melanoma
MCF7 breast = tested on: MCF7 breast
MDA-MB-231 breast = tested on: MDA-MB-231 breast
MDA-MB-435 = tested on: MDA-MB-435
MOLT-4 leukemia = tested on: MOLT-4 leukemia
NCI-H226 lung = tested on: NCI-H226 lung
NCI-H23 lung = tested on: NCI-H23 lung
NCI-H460 lung = tested on: NCI-H460 lung
NCI-H522 lung = tested on: NCI-H522 lung
NCI/ADR-RES ovarian = tested on: NCI/ADR-RES ovarian
OVCAR-3 ovarian = tested on: OVCAR-3 ovarian
OVCAR-4 ovarian = tested on: OVCAR-4 ovarian
OVCAR-5 ovarian = tested on: OVCAR-5 ovarian
OVCAR-8 ovarian = tested on: OVCAR-8 ovarian
PC-3 prostate = tested on: PC-3 prostate
RPMI-8226 leukemia = tested on: RPMI-8226 leukemia
RXF 393 renal = tested on: RXF 393 renal
SF-268 CNS = tested on: SF-268 CNS
SF-295 CNS = tested on: SF-295 CNS
SF-539 CNS = tested on: SF-539 CNS
SK-MEL-2 melanoma = tested on: SK-MEL-2 melanoma
SK-MEL-28 melanoma = tested on: SK-MEL-28 melanoma
SK-MEL-5 melanoma = tested on: SK-MEL-5 melanoma
SK-OV-3 ovarian = tested on: SK-OV-3 ovarian
SN12C renal = tested on: SN12C renal
SNB-19 CNS = tested on: SNB-19 CNS
SNB-75 CNS = tested on: SNB-75 CNS
SR leukemia = tested on: SR leukemia
SW-620 colon = tested on: SW-620 colon
T-47D breast = tested on: T-47D breast
TK-10 renal = tested on: TK-10 renal
U251 CNS = tested on: U251 CNS
UACC-257 melanoma = tested on: UACC-257 melanoma
UACC-62 melanoma = tested on: UACC-62 melanoma
UO-31 renal = tested on: UO-31 renal

CCO/C=N/C1=C(C#N)C(c2ccc(F)cc2)c2sc3c(CC)cccc3c2O1 (stereo unspecified)
GI50 (786-0 renal): 651 nM | TGI (786-0 renal): 13.2 µM | GI50 (A498 renal): 199 nM | TGI (A498 renal): 897 nM | GI50 (A549 NSCLC): 518 nM | TGI (A549 NSCLC): 14.2 µM | GI50 (ACHN renal): 711 nM | TGI (ACHN renal): 14.1 µM | GI50 (BT-549 breast): 1690 nM | TGI (BT-549 breast): 8.53 µM | GI50 (CAKI-1 renal): 359 nM | TGI (CAKI-1 renal): 17.1 µM | GI50 (CCRF-CEM leukemia): 282 nM | TGI (CCRF-CEM leukemia): 6.32 µM | GI50 (COLO 205 colon): 400 nM | TGI (COLO 205 colon): 2840 nM | GI50 (DU-145 prostate): 401 nM | TGI (DU-145 prostate): 13 µM | GI50 (EKVX NSCLC): 488 nM | TGI (EKVX NSCLC): 16.7 µM | GI50 (HCC-2998 colon): 641 nM | TGI (HCC-2998 colon): 6.65 µM | GI50 (HCT-116 colon): 395 nM | TGI (HCT-116 colon): 11.2 µM | GI50 (HCT-15 colon): 389 nM | TGI (HCT-15 colon): 10.9 µM | GI50 (HL-60(TB) leukemia): 337 nM | TGI (HL-60(TB) leukemia): 5.25 µM | GI50 (HOP-62 NSCLC): 453 nM | TGI (HOP-62 NSCLC): 17.6 µM | GI50 (HOP-92 NSCLC): 193 nM | TGI (HOP-92 NSCLC): 6.12 µM | GI50 (HS 578T breast): 385 nM | TGI (HS 578T breast): 13 µM | GI50 (HT29 colon): 351 nM | TGI (HT29 colon): 11.2 µM | GI50 (IGROV1 ovarian): 401 nM | TGI (IGROV1 ovarian): 14.1 µM | GI50 (K-562 leukemia): 292 nM | TGI (K-562 leukemia): 13.6 µM | GI50 (KM12 colon): 384 nM | TGI (KM12 colon): 13.5 µM | GI50 (LOX IMVI melanoma): 732 nM | TGI (LOX IMVI melanoma): 11.1 µM | GI50 (M14 melanoma): 292 nM | TGI (M14 melanoma): 12.8 µM | GI50 (MALME-3M melanoma): 542 nM | TGI (MALME-3M melanoma): 23.8 µM | GI50 (MCF7 breast): 361 nM | TGI (MCF7 breast): 12.5 µM | GI50 (MDA-MB-231 breast): 664 nM | TGI (MDA-MB-231 breast): 14.3 µM | GI50 (MDA-MB-435): 160 nM | TGI (MDA-MB-435): 446 nM | GI50 (MOLT-4 leukemia): 629 nM | TGI (MOLT-4 leukemia): 13.4 µM | GI50 (NCI-H226 lung): 1030 nM | TGI (NCI-H226 lung): 11.6 µM | GI50 (NCI-H23 lung): 763 nM | TGI (NCI-H23 lung): 14.4 µM | GI50 (NCI-H460 lung): 379 nM | TGI (NCI-H460 lung): 5.26 µM | GI50 (NCI-H522 lung): 209 nM | TGI (NCI-H522 lung): 5.61 µM | GI50 (NCI/ADR-RES ovarian): 226 nM | TGI (NCI/ADR-RES ovarian): 3.66 µM | GI50 (OVCAR-3 ovarian): 454 nM | TGI (OVCAR-3 ovarian): 13 µM | GI50 (OVCAR-4 ovarian): 1570 nM | TGI (OVCAR-4 ovarian): 17.8 µM | GI50 (OVCAR-5 ovarian): 670 nM | TGI (OVCAR-5 ovarian): 14.6 µM | GI50 (OVCAR-8 ovarian): 508 nM | TGI (OVCAR-8 ovarian): 15.3 µM | GI50 (PC-3 prostate): 236 nM | TGI (PC-3 prostate): 11.4 µM | GI50 (RPMI-8226 leukemia): 331 nM | TGI (RPMI-8226 leukemia): 5.52 µM | GI50 (RXF 393 renal): 177 nM | TGI (RXF 393 renal): 531 nM | GI50 (SF-268 CNS): 2030 nM | TGI (SF-268 CNS): 17.4 µM | GI50 (SF-295 CNS): 270 nM | TGI (SF-295 CNS): 2600 nM | GI50 (SF-539 CNS): 280 nM | TGI (SF-539 CNS): 1230 nM | GI50 (SK-MEL-2 melanoma): 597 nM | TGI (SK-MEL-2 melanoma): 21.5 µM | GI50 (SK-MEL-28 melanoma): 1280 nM | TGI (SK-MEL-28 melanoma): 19.7 µM | GI50 (SK-MEL-5 melanoma): 482 nM | TGI (SK-MEL-5 melanoma): 11.4 µM | GI50 (SK-OV-3 ovarian): 812 nM | TGI (SK-OV-3 ovarian): 21.6 µM | GI50 (SN12C renal): 609 nM | TGI (SN12C renal): 12.8 µM | GI50 (SNB-19 CNS): 466 nM | TGI (SNB-19 CNS): 15.8 µM | GI50 (SNB-75 CNS): 206 nM | TGI (SNB-75 CNS): 2830 nM | GI50 (SR leukemia): 451 nM | TGI (SR leukemia): 14.9 µM | GI50 (SW-620 colon): 478 nM | TGI (SW-620 colon): 13.4 µM | GI50 (T-47D breast): 440 nM | TGI (T-47D breast): 26.5 µM | GI50 (TK-10 renal): 8.08 µM | TGI (TK-10 renal): 24 µM | GI50 (U251 CNS): 468 nM | TGI (U251 CNS): 11.8 µM | GI50 (UACC-257 melanoma): 12.7 µM | TGI (UACC-257 melanoma): 31.3 µM | GI50 (UACC-62 melanoma): 371 nM | TGI (UACC-62 melanoma): 17.6 µM | GI50 (UO-31 renal): 637 nM | TGI (UO-31 renal): 17 µM
